Experimental data published in ChEMBL document CHEMBL1152335, “NMR strategy for unraveling structures of bioactive sponge-derived oxy-polyhalogenated diphenyl ethers” (J Nat Prod, 2009).

Biological target: Induced myeloid leukemia cell differentiation protein Mcl-1 (Homo sapiens, UniProt Q07820)
Test: Inhibition of Bak binding to Mcl-1 by FRET assay

Chain of Induced myeloid leukemia cell differentiation protein Mcl-1 (Q07820 whole entry): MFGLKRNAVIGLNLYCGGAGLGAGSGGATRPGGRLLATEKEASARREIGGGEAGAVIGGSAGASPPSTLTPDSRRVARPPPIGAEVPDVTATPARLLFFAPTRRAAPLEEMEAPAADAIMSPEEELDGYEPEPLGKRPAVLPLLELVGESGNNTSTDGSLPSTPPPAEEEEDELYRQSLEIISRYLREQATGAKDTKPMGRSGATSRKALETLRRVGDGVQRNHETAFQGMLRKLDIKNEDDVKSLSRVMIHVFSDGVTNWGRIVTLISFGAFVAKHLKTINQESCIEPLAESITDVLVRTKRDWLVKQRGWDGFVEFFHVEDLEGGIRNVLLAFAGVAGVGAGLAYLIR

SMILES | IC50 [µM]
Oc1c(Br)cc(Br)cc1Oc1c(O)c(Br)c(Br)c(Br)c1Br | > 14.8
Oc1c(Br)cc(Br)cc1Oc1c(Br)cc(Br)c(Br)c1O | > 16.8
COc1c(Br)c(Br)cc(Br)c1Oc1cc(Br)cc(Br)c1O | > 16.4
Oc1c(Br)cc(Br)cc1Oc1c(O)c(Br)cc(Br)c1Br | > 16.8
Oc1cc(Br)cc(Br)c1Oc1ccc(Br)cc1Br | 4.78
Oc1cc(Br)c(Br)c(Br)c1Oc1cc(Br)cc(Br)c1O | > 16.8
Oc1c(Br)cc(Br)cc1Oc1cc(Br)c(Br)c(Br)c1O | > 16.8
Oc1c(Br)c(Br)cc(Br)c1Oc1ccc(Br)cc1Br | > 17.2
